{"source": "ChEMBL document CHEMBL1135331", "about": "“Synthesis and characterization of a new RXR agonist based on the 6-tert-butyl-1,1-dimethylindanyl structure” (Bioorg Med Chem Lett, 2002)", "target": "T1, Retinoic acid receptor RXR-alpha (Homo sapiens, UniProt P19793)", "T1 sequence (P19793 whole entry)": "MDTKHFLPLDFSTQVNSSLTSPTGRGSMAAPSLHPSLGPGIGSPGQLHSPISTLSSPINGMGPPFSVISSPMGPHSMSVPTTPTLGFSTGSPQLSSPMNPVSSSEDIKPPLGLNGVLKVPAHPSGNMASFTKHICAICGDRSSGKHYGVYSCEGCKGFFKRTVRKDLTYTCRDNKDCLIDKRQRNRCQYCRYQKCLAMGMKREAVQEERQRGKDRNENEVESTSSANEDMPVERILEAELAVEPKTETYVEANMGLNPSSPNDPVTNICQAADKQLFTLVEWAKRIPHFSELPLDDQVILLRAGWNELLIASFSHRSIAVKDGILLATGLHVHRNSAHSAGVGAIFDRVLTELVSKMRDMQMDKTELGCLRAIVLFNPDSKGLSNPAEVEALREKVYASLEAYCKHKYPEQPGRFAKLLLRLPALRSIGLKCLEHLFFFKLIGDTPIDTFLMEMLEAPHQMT", "experiment": "Dissociation constant for binding to Retinoic acid receptor RXR-alpha", "data": [{"smiles": "C=C(/C=C/C=C/C(=O)O)c1cc(C(C)(C)C)cc2c1CCC2(C)C", "values": [{"measurement": "Kd", "result": 220, "unit": "nM"}]}]}
